The nature of series [1]: Metabolic stability in mouse intestinal homogenate (GIh). The note with it: for remaining at 1 h, 10 µM / remaining at 1 h, 10 μM: CES1–/–, mouse, intestinal homogenate; for Intestinal homogenate: supplementary CSV, unit not given, matches Table 1 % remaining at 1 h, in %.
Series [2] in a line: Metabolic stability in mouse plasma. The note with it: for Plasma: supplementary CSV, unit not given, matches Table 1 % remaining at 1 h, in %.

`COC(=O)[C@H](CCC(=O)C=[N+]=[N-])NC(=O)[C@H](Cc1c[nH]c2ccccc12)NC(C)=O` [Prodrug P1, Methyl (S)-2-((S)-2-Acetamido-3-(1H-indol-3-yl)propanamido)-6-diazo-5-oxohexanoate]: in series [1], the amount remaining at 1 h, 10 µM is 4%; the amount remaining at 1 h, 10 μM was less than 10%; the Intestinal homogenate turned out to be 4 ± 0.
Regarding `CCOC(=O)[C@H](CCC(=O)C=[N+]=[N-])NC(=O)[C@H](Cc1c[nH]c2ccccc12)NC(C)=O` [Prodrug P2, Ethyl (S)-2-((S)-2-Acetamido-3-(1H-indol-3-yl)propanamido)-6-diazo-5-oxohexanoate], in series [1], the fraction remaining at 1 h, 10 µM is 2%; the amount remaining at 1 h, 10 μM is less than 10%; the Intestinal homogenate was 2 ± 0.
For `CC(=O)N[C@@H](Cc1c[nH]c2ccccc12)C(=O)N[C@@H](CCC(=O)C=[N+]=[N-])C(=O)OC1CC1` [Prodrug P3, Cyclopropyl (S)-2-((S)-2-Acetamido-3-(1H-indol-3-yl)propanamido)-6-diazo-5-oxohexanoate] the same measures were 6%, less than 10% and 6 ± 0.
For `CC(=O)N[C@@H](Cc1c[nH]c2ccccc12)C(=O)N[C@@H](CCC(=O)C=[N+]=[N-])C(=O)OCC1CC1` [Prodrug P4, Cyclopropylmethyl (S)-2-((S)-2-Acetamido-3-(1H-indol-3-yl)propanamido)-6-diazo-5-oxohexanoate] the same measures were 1%, less than 10% and 1 ± 0.
For the molecule `CC(=O)N[C@@H](Cc1c[nH]c2ccccc12)C(=O)N[C@@H](CCC(=O)C=[N+]=[N-])C(=O)OC(C)(C)C` [Prodrug P5, tert-Butyl (S)-2-((S)-2-Acetamido-3-(1H-indol-3-yl)propanamido)-6-diazo-5-oxohexanoate], the amount remaining at 1 h, 10 µM in series [2] (CES1–/–, mouse, plasma) turned out to be 92 ± 1%. The molecule further registered a Plasma in series [2] of 92 ± 1. In addition, in series [1], the fraction remaining at 1 h, 10 µM came to 99 ± 1%; the amount remaining at 1 h, 10 μM was greater than 50%; the Intestinal homogenate came to 99 ± 1.
Taken in the same sequence, the figures for `CNC(=O)[C@H](CCC(=O)C=[N+]=[N-])NC(=O)[C@H](Cc1c[nH]c2ccccc12)NC(C)=O` [Prodrug P6, (S)-2-((S)-2-Acetamido-3-(1H-indol-3-yl)propanamido)-6-diazo-N-methyl-5-oxohexanamide] were 102 ± 1%, 102 ± 1, 77 ± 1%, greater than 50% and 77 ± 1.
Take `CC(C)(C)OC(=O)[C@H](CCC(=O)C=[N+]=[N-])NC(=O)[C@H](Cc1c[nH]c2ccccc12)NC(=O)CN1CCOCC1` [Prodrug P7, tert-Butyl (S)-2-((S)-3-(1H-Indol-3-yl)-2-(2-morpholinoacetamido)propanamido)-6-diazo-5-oxohexanoate]: the share remaining at 1 h, 10 µM was 95 ± 3% in series [2] (CES1–/–, mouse, plasma) and 83 ± 1% in series [1]. In series [1], the Intestinal homogenate was 83 ± 1.
As to `CN(C)CC(=O)N[C@@H](Cc1c[nH]c2ccccc12)C(=O)N[C@@H](CCC(=O)C=[N+]=[N-])C(=O)OC(C)(C)C` [Prodrug P9, tert-Butyl (S)-6-Diazo-2-((S)-2-(2-(dimethylamino)acetamido)-3-(1H-indol-3-yl)propanamido)-5-oxohexanoate], in series [2] (CES1–/–, mouse, plasma), the fraction remaining at 1 h, 10 µM turned out to be 102 ± 2%. For the same molecule, in series [2], the Plasma is 102 ± 2. For the same molecule, in series [1], the fraction remaining at 1 h, 10 µM stood at 66 ± 1% and the Intestinal homogenate is reported as 66 ± 1.
Regarding `CN(C)CC(=O)N[C@@H](Cc1cn(C)c2ccccc12)C(=O)N[C@@H](CCC(=O)C=[N+]=[N-])C(=O)OC(C)(C)C` [Prodrug P10, tert-Butyl (S)-6-Diazo-2-((S)-2-(2-(dimethylamino)acetamido)-3-(1-methyl-1H-indol-3-yl)propanamido)-5-oxohexanoate], in series [2] (CES1–/–, mouse, plasma), the fraction remaining at 1 h, 10 µM came to 97 ± 2%. This molecule registered a Plasma in series [2] of 97 ± 2. In series [1], the amount remaining at 1 h, 10 µM turned out to be 87 ± 2% and the Intestinal homogenate is 87 ± 2.
Taken in the same sequence, the figures for `CN(C)CC(=O)N[C@H](Cc1ccccc1)C(=O)N[C@@H](CCC(=O)C=[N+]=[N-])C(=O)OC(C)(C)C` [Prodrug P12, tert-Butyl (S)-6-Diazo-2-((R)-2-(2-(dimethylamino)acetamido)-3-phenylpropanamido)-5-oxohexanoate] were 92%, 92 ± 0, 90 ± 3% and 90 ± 3.
In the case of `CN(C)CC(=O)N[C@H](C(=O)N[C@@H](CCC(=O)C=[N+]=[N-])C(=O)OC(C)(C)C)c1ccccc1` [Prodrug P13, tert-Butyl (S)-6-Diazo-2-((S)-2-(2-(dimethylamino)acetamido)-2-phenylacetamido)-5-oxohexanoate], the fraction remaining at 1 h, 10 μM in series [2] (CES1–/–, mouse, plasma) came to 92 ± 1%; in series [1], 92 ± 1%. Moreover, the Plasma in series [2] was 92 ± 1. Also, the Intestinal homogenate in series [1] came to 92 ± 1.
As to `CN(C)CC(=O)N[C@@H](Cc1ccc(F)cc1)C(=O)N[C@@H](CCC(=O)C=[N+]=[N-])C(=O)OC(C)(C)C` [Prodrug P15, tert-Butyl (S)-6-Diazo-2-((S)-2-(2-(dimethylamino)acetamido)-3-(4-fluorophenyl)propanamido)-5-oxohexanoate], in series [2] (CES1–/–, mouse, plasma), the amount remaining at 1 h, 10 µM was 108 ± 1%. In series [2], the Plasma came to 108 ± 1. In series [1], the fraction remaining at 1 h, 10 µM turned out to be 67 ± 1% and the Intestinal homogenate is given as 67 ± 1.
Taken in the same sequence, the figures for `CN(C)CC(=O)N[C@@H](Cc1cccc(F)c1)C(=O)N[C@@H](CCC(=O)C=[N+]=[N-])C(=O)OC(C)(C)C` [Prodrug P16, tert-Butyl (S)-6-Diazo-2-((S)-2-(2-(dimethylamino)acetamido)-3-(3-fluorophenyl)propanamido)-5-oxohexanoate] were 99 ± 3%, 99 ± 3, 69 ± 7% and 69 ± 7.
Regarding `CN(C)CC(=O)N[C@@H](Cc1ccc(C(F)(F)F)cc1)C(=O)N[C@@H](CCC(=O)C=[N+]=[N-])C(=O)OC(C)(C)C` [Prodrug P17, tert-Butyl (S)-6-Diazo-2-((S)-2-(2-(dimethylamino)acetamido)-3-(4-(trifluoromethyl)phenyl)propanamido)-5-oxohexanoate], in series [2] (CES1–/–, mouse, plasma), the share remaining at 1 h, 10 µM worked out at 70 ± 14%. In addition, in series [2], the Plasma was 70 ± 14. In addition, in series [1], the fraction remaining at 1 h, 10 µM is 76 ± 1% and the Intestinal homogenate was found to be 76 ± 1.
Taken in the same sequence, the figures for `CN(C)CC(=O)NCC(=O)N[C@@H](CCC(=O)C=[N+]=[N-])C(=O)OC(C)(C)C` [Prodrug P18, tert-Butyl (S)-6-Diazo-2-(2-(2-(dimethylamino)acetamido)acetamido)-5-oxohexanoate] were 108 ± 1%, 108 ± 1, 97 ± 1% and 97 ± 1.
As to `C[C@H](NC(=O)CN(C)C)C(=O)N[C@@H](CCC(=O)C=[N+]=[N-])C(=O)OC(C)(C)C` [Prodrug P19, tert-Butyl (S)-6-Diazo-2-((S)-2-(2-(dimethylamino)acetamido)propanamido)-5-oxohexanoate], the share remaining at 1 h, 10 µM in series [2] (CES1–/–, mouse, plasma) came to 99 ± 2%. In series [2], this molecule gave a Plasma of 99 ± 2. Further, in series [1], the share remaining at 1 h, 10 µM was 86 ± 4% and the Intestinal homogenate was determined as 86 ± 4.
As to `CC(C)C[C@H](NC(=O)CN(C)C)C(=O)N[C@@H](CCC(=O)C=[N+]=[N-])C(=O)OC(C)(C)C` [Prodrug P20, tert-Butyl (S)-6-Diazo-2-((S)-2-(2-(dimethylamino)acetamido)-4-methylpentanamido)-5-oxohexanoate], in series [2] (CES1–/–, mouse, plasma), the fraction remaining at 1 h, 10 µM came to 98 ± 2%. Besides, the Plasma in series [2] is listed as 98 ± 2. In addition, in series [1], the fraction remaining at 1 h, 10 µM worked out at 79% and the Intestinal homogenate was found to be 79 ± 0.
Taken in the same sequence, the figures for `CN(C)CC(=O)N[C@@H](CC(C)(C)C)C(=O)N[C@@H](CCC(=O)C=[N+]=[N-])C(=O)OC(C)(C)C` [Prodrug P21, tert-Butyl (S)-6-Diazo-2-((S)-2-(2-(dimethylamino)acetamido)-4,4-dimethylpentanamido)-5-oxohexanoate] were 98 ± 3%, 98 ± 3, 68 ± 1% and 68 ± 1.

The values above are taken from publication PMC10683027, “Discovery of tert-Butyl Ester Based 6-Diazo-5-oxo-L-norleucine Prodrugs for Enhanced Metabolic Stability and Tumor Delivery” (Journal of Medicinal Chemistry, 2023).
